According to PubChem BioAssay (NCI):
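GI50 marks 50% less growth. At the TGI there is no net growth.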

Experiments:
Assay in all cases: inhibition of tumour cell growth, NCI panel, 384-well format
ACHN renal = tested on: ACHN renal
MDA-MB-231 breast = tested on: MDA-MB-231 breast
HT29 colon = tested on: HT29 colon
UACC-62 melanoma = tested on: UACC-62 melanoma
SF-295 CNS = tested on: SF-295 CNS
HOP-62 NSCLC = tested on: HOP-62 NSCLC
PC-3 prostate = tested on: PC-3 prostate
LOX IMVI melanoma = tested on: LOX IMVI melanoma
OVCAR-5 ovarian = tested on: OVCAR-5 ovarian
T-47D breast = tested on: T-47D breast
CAKI-1 renal = tested on: CAKI-1 renal
HCC-2998 colon = tested on: HCC-2998 colon
HL-60(TB) leukemia = tested on: HL-60(TB) leukemia
UO-31 renal = tested on: UO-31 renal
SN12C renal = tested on: SN12C renal
786-0 renal = tested on: 786-0 renal
SW-620 colon = tested on: SW-620 colon
RXF 393 renal = tested on: RXF 393 renal
RPMI-8226 leukemia = tested on: RPMI-8226 leukemia
A498 renal = tested on: A498 renal
M14 melanoma = tested on: M14 melanoma
K-562 leukemia = tested on: K-562 leukemia
SK-OV-3 ovarian = tested on: SK-OV-3 ovarian
SF-268 CNS = tested on: SF-268 CNS
SR leukemia = tested on: SR leukemia
SK-MEL-2 melanoma = tested on: SK-MEL-2 melanoma
MOLT-4 leukemia = tested on: MOLT-4 leukemia
HCT-15 colon = tested on: HCT-15 colon
OVCAR-3 ovarian = tested on: OVCAR-3 ovarian

How did the GI50 (ACHN renal) turn out when `O=C(NS(=O)(=O)c1ccc(NC[C@H]2COCCO2)c([N+](=O)[O-])c1)c1ccc(N2CCN(CC3=C(c4ccc(Cl)cc4)CC4(CCC4)CC3)CC2)cc1Oc1cnc2[nH]ccc2c1` was run?
The GI50 was 2370 nM.

And the TGI (ACHN renal)?
Its TGI is 6630 nM.

And the GI50 (MDA-MB-231 breast)?
Its GI50 is 2060 nM.

What about the TGI (MDA-MB-231 breast) of the same compound?
The TGI was 4320 nM.

What about the GI50 (HT29 colon) of the same compound?
Its GI50 is 2320 nM.

What about the TGI (HT29 colon) of the same compound?
Its TGI is 5170 nM.

And the GI50 (UACC-62 melanoma)?
The GI50 was 1960 nM.

What about the TGI (UACC-62 melanoma) of the same compound?
Its TGI is 3780 nM.

What about the GI50 (SF-295 CNS) of the same compound?
The GI50 was 1390 nM.

And the TGI (SF-295 CNS)?
The TGI was 3240 nM.

What about the GI50 (HOP-62 NSCLC) of the same compound?
The GI50 was 2240 nM.

And the TGI (HOP-62 NSCLC)?
Its TGI is 5190 nM.

And the GI50 (PC-3 prostate)?
Its GI50 is 2120 nM.

What about the TGI (PC-3 prostate) of the same compound?
The TGI was 5150 nM.

And the GI50 (LOX IMVI melanoma)?
The GI50 was 2800 nM.

What about the TGI (LOX IMVI melanoma) of the same compound?
Its TGI is 5300 nM.

And the GI50 (OVCAR-5 ovarian)?
The GI50 was 2150 nM.

What about the TGI (OVCAR-5 ovarian) of the same compound?
Its TGI is 4280 nM.

What about the GI50 (T-47D breast) of the same compound?
Its GI50 is 2920 nM.

And the TGI (T-47D breast)?
The TGI was 9740 nM.

And the GI50 (CAKI-1 renal)?
The GI50 was 2170 nM.

And the TGI (CAKI-1 renal)?
The TGI was 5110 nM.

What about the GI50 (HCC-2998 colon) of the same compound?
Its GI50 is 1810 nM.

And the TGI (HCC-2998 colon)?
The TGI was 3370 nM.

What about the GI50 (HL-60(TB) leukemia) of the same compound?
Its GI50 is 23.9 nM.

And the TGI (HL-60(TB) leukemia)?
The TGI was 1240 nM.

What about the GI50 (UO-31 renal) of the same compound?
The GI50 was 2100 nM.

What about the TGI (UO-31 renal) of the same compound?
The TGI was 4750 nM.

What about the GI50 (SN12C renal) of the same compound?
The GI50 was 2520 nM.

And the TGI (SN12C renal)?
The TGI was 7270 nM.

And the GI50 ([…]-0 renal)?
The GI50 was 2410 nM.

What about the TGI (786-0 renal) of the same compound?
Its TGI is 6750 nM.

What about the GI50 (SW-620 colon) of the same compound?
Its GI50 is 3960 nM.

And the TGI (SW-620 colon)?
Its TGI is 12900 nM.

And the GI50 (RXF 393 renal)?
The GI50 was 1340 nM.

And the TGI (RXF 393 renal)?
The TGI was 2940 nM.

And the GI50 (RPMI-8226 leukemia)?
The GI50 was 1020 nM.

And the TGI (RPMI-8226 leukemia)?
Its TGI is 2180 nM.

What about the GI50 (A498 renal) of the same compound?
The GI50 was 1860 nM.

And the TGI (A498 renal)?
The TGI was 5090 nM.

What about the GI50 (M14 melanoma) of the same compound?
Its GI50 is 2100 nM.

What about the TGI (M14 melanoma) of the same compound?
The TGI was 4140 nM.

And the GI50 (K-562 leukemia)?
The GI50 was 3320 nM.

What about the TGI (K-562 leukemia) of the same compound?
Its TGI is 11100 nM.

And the GI50 (SK-OV-3 ovarian)?
The GI50 was 2910 nM.

What about the TGI (SK-OV-3 ovarian) of the same compound?
Its TGI is 7580 nM.

And the GI50 (SF-268 CNS)?
Its GI50 is 3320 nM.

What about the TGI (SF-268 CNS) of the same compound?
The TGI was 8910 nM.

What about the GI50 (SR leukemia) of the same compound?
Its GI50 is 1130 nM.

And the TGI (SR leukemia)?
Its TGI is 2350 nM.

And the GI50 (SK-MEL-2 melanoma)?
Its GI50 is 1990 nM.

And the TGI (SK-MEL-2 melanoma)?
The TGI was 3690 nM.

And the GI50 (MOLT-4 leukemia)?
Its GI50 is 814 nM.

What about the TGI (MOLT-4 leukemia) of the same compound?
The TGI was 2080 nM.

And the GI50 (HCT-15 colon)?
Its GI50 is 2020 nM.

And the TGI (HCT-15 colon)?
Its TGI is 4070 nM.

What about the GI50 (OVCAR-3 ovarian) of the same compound?
The GI50 was 2000 nM.
